Patent publication US20260275299A1, “Bioprinted Three-Dimensional Tumor Model” (ASOCIACIÓN CENTRO DE INVESTIGACIÓN EN BIOMATERIALES - CIC …, priority 2023, published 2026)

Tested on: MCF-7 tumor models
Assay: Live/dead staining of drug-treated 3D tumor models
Assay type: cell-based, human
Conditions: 200 μM, compared to negative and positive controls
Protocol: To assess cell viability in both the core tumor model and the 3D breast tumor model with the stromal compartment, calcein (targets live cells in green) and propidium iodide (targets dead cells in red) were added to the cell culture medium of the 3D constructs at a 1:100 concentration.

SMILES: CC/C(=C(\c1ccccc1)c1ccc(OCCN(C)C)cc1)c1ccccc1 [Tamoxifen]
- live/dead staining: Dead cells are observed in the outer regions of the models
